Tests used:
SNL model in rats = experiment: Antiallodynic activity on Chung model (SNL, spinal nerve ligation), von Frey; type: in vivo, Sprague-Dawley rats; conditions: Rattus norvegicus, po, 1 h
Experimental: Male Sprague-Dawley rats (200-220 g, Orient Bio, Korea) were habituated for 1 week before the experiment and allowed free access to food and water throughout the experimentation. Room temperature and humidity were maintained at 24±2° C. and 50±10%, respectively. Neuropathic surgery (SNL, Spinal nerve ligation) model was done as described in Kim and Chung (1992). Briefly, animal under gaseous anesthesia with isoflurane a 4:4 flow ratio of NO2. The left lumber spinal nerve L5 and L6 were isolated and tightly ligated with 4˜0 silk thread. The wound was treated with a gentamicin antibiotics solution (4 mg/kg, 4 ul/g, bw), and the wound muscle was closed with cat cut chrome 4/0 thread and skin was closed dafilon 4/0 tread. Sham controls were prepared in the same manner as the spinal nerves were exposed, but no ligated L5 and L6 nerves. But, vehicle controls were identical to SNL model, except for administration of vehicles.
Tactile sensitivity (Mechanical allodynia) was evaluated using von Frey monofilaments before and after treatment and animals were used withdrawal threshold value was less than 4 g. […] The tactile sensitivity for ipsilateral hind paw was measured using the up-and-down method (Dixon, 1980) with seven von Frey monofilaments (0.4, 1, 2, 4, 6, 8, and 15 g) to 3 trials. […] The 50% paw withdrawal threshold for each paw was calculated using the following formula: [Xth] log=[vFr] log+ky where [vFr] is the force of the last von Frey used, k=0.2249 which is the average interval (in log units) between the von Frey monofilaments, and y is a value that depends upon the pattern of withdrawal responses (Dixon, 1980).
All animals were fasted 18 h before the administration of the compounds. Antiallodynic effect of compounds of Examples 1, 63 and 65 were evaluated at the dose of 5, 10 and 30 mg/kg (n=5˜6), orally administrated in a volume of 5 ul/g, bw in a vehicle of 30% (v/v) PEG 400 (Examples 1 and 63) or 20% (v/v) Tween 80 (Example 65). […]

[1] = test system: CFA-induced pain model in rats; experiment: Antiallodynic activity on Complete Freund's Adjuvant (CFA)-induced inflammatory pain model, von Frey; type: in vivo, Sprague-Dawley rats; conditions: 0.5 hr, paw withdrawal threshold relative to sham
Experimental: Male, Sprague-Dawley rats (200-220 g, Nara Bio, Korea) were habituated for 1 week before surgery and allowed free access to food and water throughout the experimentation. Room temperature and humidity were maintained at 24±2° C. and 50±10%, respectively.
CFA-induced inflammatory pain was induced by the procedure of Nagakura et al. (2003) and Gregory P. et al. (2010) with minor modifications. CFA (sigma, USA) was injected in the right plantar with a 100 ul volume under gaseous anesthesia with isoflurane a 4:4 flow ratio of NO2. Sham controls were injected with 100 ul of saline and vehicle controls were identical to CFA infusion model, except for administration of vehicles.
Tactile sensitivity (Mechanical allodynia) was evaluated using von Frey monofilaments before and after treatment, and animals were used withdrawal threshold value was less than 4 g. One week after surgery, CFA-infused animals (n=4˜6), sham-operated animals (n=12), and vehicle-operated animals (n=17) were tested for tactile sensitivity with von Frey monofilaments 3 trials in each animal. All Animals were placed in a stainless steel mashed chamber and habituated for 30 min in the test box. The tactile sensitivity for ipsilateral hind paw was measured using the up-and-down method (Dixon, 1980) with seven von Frey monofilaments (0.4, 1, 2, 4, 6, 8, and 15 g) to 3 trials. […] The 50% paw withdrawal threshold for each paw was calculated using the following formula: [Xth] log=[vFr] log+ky where [vFr] is the force of the last von Frey used, k=0.2249 which is the average interval (in log units) between the von Frey monofilaments, and y is a value that depends upon the pattern of withdrawal responses (Dixon, 1980).
Antiallodynic effect of compound of Example 1 was evaluated at the dose of 10, 30 and 60 mg/kg (n=4˜6), intraperitoneally administrated in a volume of 5 ul/g bw in a vehicle of 30% (v/v) PEG. […]
The relative values compared to the sham (% control) were calculated and shown in Table 7 and FIG. 7, which show an antiallodynic effect of Compound 1 on CFA-induced pain model in rats.

SMILES: C[C@H](OC(N)=O)[C@@H](O)c1ccccc1Cl [Example 1, 1-(2-chlorophenyl)-(S)-1-hydroxypropyl-(S)-2-carbamate]
- ED50 (SNL model in rats): 11.1 mg/kg
- % Control (CFA-induced pain model) ([1]; dose 10 mg/kg intraperitoneally): 12.5%
- % Control (CFA-induced pain model) ([1]; dose 30 mg/kg intraperitoneally): 40.0%
- % Control (CFA-induced pain model) ([1]; dose 60 mg/kg intraperitoneally): 73.7%

— patent publication US9162975B2, “Phenyl carbamate compounds for use in alleviating or treating pain” (Bio-Pharm Solutions Co., Ltd., priority 2011, dated 2015)
